This note sets out measurements from ChEMBL document CHEMBL1150212, “Antitumor agents, 129. Tannins and related compounds as selective cytotoxic agents” (1992).

Common to all, as to type: functional
Common to all, as to conditions: read-out: ED50 (the source's name)

Assay [1] in a line: Cytotoxicity against human […] cells by tetrazolium salt-based colorimetric assay.
Assay [2] relates to KB. Briefly: Cytotoxicity against human KB cells by tetrazolium salt-based colorimetric assay.
In assay [3] the test system is A549. Briefly: Cytotoxicity against human A549 cells by tetrazolium salt-based colorimetric assay.
Assay [4] has as its system HCT-8. Briefly: Cytotoxicity against human HCT8 cells by tetrazolium salt-based colorimetric assay.
Assay [5] relates to TE-671. Briefly: Cytotoxicity against human TE671 cells by tetrazolium salt-based colorimetric assay.

The structures appear in SMILES notation.

Regarding `O=C(O)C1=C[C@@H](OC(=O)c2cc(O)c(O)c(O)c2)[C@@H](O)[C@H](OC(=O)c2cc(O)c(O)c(O)c2)C1`, the EC50 in assay [1], in assay [2], in assay [3], in assay [4] and in assay [5] was greater than 10 µg/mL each time.

For the compound `O=C1OC[C@H]2OC(=O)c3cc(O)c(O)c(O)c3-c3c(O)c(O)c(O)c4c3C(=O)O[C@H]([C@@H]3OC(=O)c5c-4c(O)c(O)c(O)c5[C@@H]3c3c(O)cc(O)c4c3O[C@H](c3ccc(O)c(O)c3)[C@@H](O)C4)[C@H]2OC(=O)c2cc(O)c(O)c(O)c2-c2c1cc(O)c(O)c2O` [ACUTISSIMIN A], the EC50 in assay [1] was 0.61 µg/mL; in assay [2], greater than 10 µg/mL; in assay [3], greater than 10 µg/mL; in assay [4], greater than 10 µg/mL; in assay [5], greater than 10 µg/mL.

With `O=C(OC[C@H]1O[C@@H](OC(=O)c2cc(O)c(O)c(O)c2)[C@H](OC(=O)c2cc(O)c(O)c(O)c2)[C@@H](OC(=O)c2cc(O)c(O)c(O)c2)[C@@H]1OC(=O)c1cc(O)c(O)c(O)c1)c1cc(O)c(O)c(O)c1` [PENTAGALLOYL GLUCOSE], the EC50 in assay [1] was 5.01 µg/mL; in assay [2], greater than 10 µg/mL; in assay [3], greater than 10 µg/mL; in assay [4], greater than 10 µg/mL; in assay [5], greater than 10 µg/mL.

As to `O=C1O[C@H]([C@@H]2OC(=O)c3cc(O)c(O)c(O)c3-c3c(O)c(O)c4oc(=O)c5c(c(O)c(O)c6oc(=O)c3c4c65)-c3c(cc(O)c(O)c3O)C(=O)OC[C@H]2O)[C@@H]2OC(=O)c3c(c(O)c(O)c(O)c3[C@H]2O)-c2c1cc(O)c(O)c2O` [PUNICACORTEIN C], the EC50 is 3.86 µg/mL in assay [1]; greater than 10 µg/mL in assay [2]; greater than 10 µg/mL in assay [3]; greater than 10 µg/mL in assay [4]; greater than 10 µg/mL in assay [5].

On to `Oc1cc(O)c2c(c1)O[C@H](c1ccc(O)c(O)c1)[C@H](O)[C@H]2c1c(O)cc(O)c2c1O[C@H](c1ccc(O)c(O)c1)[C@H](O)C2` [PROCYANIDIN B2], for which the EC50 in assay [1], in assay [2], in assay [3], in assay [4] and in assay [5] was greater than 10 µg/mL each time.

`O=C(OC[C@H]1O[C@@H](OC(=O)c2cc(O)c(O)c(O)c2)[C@H](OC(=O)c2cc(O)c(O)c(O)c2)[C@@H](O)[C@@H]1O)c1cc(O)c(O)c(O)c1`: the EC50 in assay [1], in assay [2], in assay [3], in assay [4] and in assay [5] was greater than 10 µg/mL in each case.

With `O=C(O)C1=C[C@@H](O)[C@@H](O)[C@H](OC(=O)c2cc(O)c(O)c(O)c2)C1`, the EC50 in assay [1], in assay [2], in assay [3], in assay [4] and in assay [5] was greater than 10 µg/mL throughout.

Consider `O=C(O[C@H]1[C@H](O)C[C@](O)(C(=O)O)C[C@H]1O)c1cc(O)c(O)c(O)c1`, for which the EC50 in assay [1], in assay [2], in assay [3], in assay [4] and in assay [5] was greater than 10 µg/mL throughout.

With `O=C(O[C@@H]1[C@@H](c2c(O)cc(O)c3c2O[C@H](c2ccc(O)c(O)c2)[C@H](OC(=O)c2cc(O)c(O)c(O)c2)C3)c2c(O)cc(O)c([C@H]3c4c(O)cc(O)cc4O[C@H](c4ccc(O)c(O)c4)[C@@H]3OC(=O)c3cc(O)c(O)c(O)c3)c2O[C@@H]1c1ccc(O)c(O)c1)c1cc(O)c(O)c(O)c1`, the EC50 is 3.05 µg/mL in assay [1]; greater than 10 µg/mL in assay [2]; greater than 10 µg/mL in assay [3]; greater than 10 µg/mL in assay [4]; greater than 10 µg/mL in assay [5].

As to `O=C(O[C@@H]1O[C@@H]2COC(=O)c3cc(O)c(O)c(O)c3-c3c(cc(O)c(O)c3O)C(=O)O[C@H]([C@H]1O)[C@@H]2O)c1cc(O)c(O)c(O)c1` [CORILAGIN], the EC50 in assay [1], in assay [2], in assay [3], in assay [4] and in assay [5] was greater than 10 µg/mL in each case.

`O=C1O[C@H]2[C@H](O)[C@@H](CO)OC(O)[C@@H]2OC(=O)c2cc(O)c(O)c(O)c2-c2c1cc(O)c(O)c2O` (stereo not given in full): the EC50 in assay [1], in assay [2], in assay [3], in assay [4] and in assay [5] was greater than 10 µg/mL in each case.

As for `O=C(O[C@H]1[C@H](O)C[C@](OC(=O)c2cc(O)c(O)c(O)c2)(C(=O)O)C[C@H]1OC(=O)c1cc(O)c(O)c(O)c1)c1cc(O)c(O)c(O)c1`, the EC50 in assay [1], in assay [2], in assay [3], in assay [4] and in assay [5] was greater than 10 µg/mL each time.

Regarding `O=C(O[C@@H]1C[C@](O)(C(=O)O)C[C@@H](OC(=O)c2cc(O)c(O)c(O)c2)[C@H]1OC(=O)c1cc(O)c(O)c(O)c1)c1cc(O)c(O)c(O)c1`, the EC50 in assay [1], in assay [2], in assay [3], in assay [4] and in assay [5] was greater than 10 µg/mL each time.

On to `O=C1O[C@H]2[C@H](O)[C@@H](OC(=O)c3cc(O)c(O)c4c3[C@@H]3C1=CC(=O)C(O)(O)C3(O)O4)[C@H](OC(=O)c1cc(O)c(O)c(O)c1)O[C@@H]2CO` (stereo not given in full) [FUROSIN], for which the EC50 in assay [1] was 0.67 µg/mL; in assay [2], greater than 10 µg/mL; in assay [3] it was greater than 10 µg/mL; in assay [4], greater than 10 µg/mL; in assay [5], greater than 10 µg/mL.

Take `O=C(O[C@@H]1O[C@@H]2COC(=O)c3cc(O)c(O)c(O)c3-c3c(cc(O)c(O)c3O)C(=O)O[C@H]2[C@@H]2OC(=O)c3cc(O)c(O)c(O)c3-c3c(cc(O)c(O)c3O)C(=O)O[C@@H]12)c1cc(O)c(O)c(O)c1`: the EC50 in assay [1] is 0.21 µg/mL; in assay [2], greater than 10 µg/mL; in assay [3], greater than 10 µg/mL; in assay [4], greater than 10 µg/mL; in assay [5], greater than 10 µg/mL.

Take `Oc1cc(O)c2c(c1)O[C@H](c1ccc(O)c(O)c1)[C@H](O)[C@H]2c1c(O)cc(O)c2c1O[C@H](c1ccc(O)c(O)c1)[C@H](O)[C@H]2c1c(O)cc(O)c2c1O[C@H](c1ccc(O)c(O)c1)[C@H](O)C2` [PROCYANIDIN C1]: the EC50 in assay [1], in assay [2], in assay [3], in assay [4] and in assay [5] was greater than 10 µg/mL in each case.

In the case of `O=C(OC[C@H]1OC(O)[C@@](O)(COC(=O)c2cc(O)c(O)c(O)c2)[C@@H]1OC(=O)c1cc(O)c(O)c(O)c1)c1cc(O)c(O)c(O)c1` (stereo not given in full), the EC50 in assay [1], in assay [2], in assay [3], in assay [4] and in assay [5] was greater than 10 µg/mL in each case.

As to `Oc1cc(O)c2c(c1)O[C@H](c1ccc(O)c(O)c1)[C@H](O)[C@H]2c1c(O)cc(O)c2c1O[C@@]1(c3ccc(O)c(O)c3)Oc3cc(O)c4c(c3[C@@H]2[C@H]1O)O[C@H](c1ccc(O)c(O)c1)[C@H](O)[C@H]4c1c(O)cc(O)c2c1O[C@H](c1ccc(O)c(O)c1)[C@H](O)C2` [CINNAMTANNIN B2], the EC50 in assay [1] is 0.66 µg/mL; in assay [2] it was greater than 10 µg/mL; in assay [3], greater than 10 µg/mL; in assay [4] it was greater than 10 µg/mL; in assay [5], greater than 10 µg/mL.
